# Measured values reported in patent US20240368566A1, “PYK2-DERIVED PEPTIDES FOR INHIBITING INVADOPODIA-MEDIATED CANCER METASTASIS” (BAR-ILAN UNIVERSITY, priority 2023, published 2024).
# What was measured:
# Assay type in all cases: cell-based, human
# MDA-MB-231 cells [1] = test: Invadopodium precursor formation assay; details: 4 h, 0.1, 1 or 5 μM peptide
# Description: The invadopodium precursor formation assay was performed as described in Genna et al., 2018 (supra). Briefly, gelatin was conjugated to Alexa 405 dye (Thermo Fisher Scientific). MatTek dishes were treated with 1 N HCl and coated with 50 μg/ml poly-L-lysine. A 0.2% gelatin solution was prepared in PBS, and a 1:20 mixture of Alexa 405-labeled gelatin/unlabeled gelatin was warmed to 37° C. before addition to the poly-L-lysine coated plates. Gelatin was cross-linked with 0.01% glutaraldehyde followed by quenching with 5 mg/ml sodium borohydride. 125,000 MDA-MB-231 cells were plated on Alexa 405-labeled gelatin plates in the presence of 0.1, 1, or 5 μM of Pyk2-PRR peptides or scrambled control for 4 h. At the end of incubation, cells were fixed in 3.7% paraformaldehyde, permeabilized with 0.1% Triton X-100, blocked with 1% FBS, 1% BSA in PBS, and labeled with anti-Tks5 and anti-cortactin. Images were acquired using an inverted fluorescent microscope (Leica AF6000; 63×, NA 1.4, oil objective, Leica LAS AF acquisition software) (Wetzlar, Germany) equipped with an ORCA-Flash 4.0 V2 digital CMOS camera (Hamamatsu Photonics, Shizuoka, Japan).
# MDA-MB-231 cells [2] = test: 3D scratch wound assay in Matrigel; details: 0.1, 1, 5 μM peptide; versus scrambled control
# Description: The 3D scratch wound assay was performed as described in Meirson et al. Targeting invadopodia-mediated breast cancer metastasis by using ABL kinase inhibitors. Oncotarget 2018; 9: 22158-22183. Briefly, 96 well Image Lock microtiter plates (Essen Bioscience) were coated with 100 μg/ml Matrigel (cat #354234; Corning, New-York, NY, USA). Following overnight incubation at 37° C., MDA-MB-231 cells were plated at a final concentration of 350,000 cells/ml and allowed to adhere for 12-16 h in the presence of Pyk2-PRR or control peptides. Following wounding of the bottom Matrigel-cells layer, a top layer of Matrigel was added to a final concentration of 2 mg/ml and allowed to polymerize for 30 min at 37° C. Pyk2-PRR or control scrambled peptides were then added again in DMEM/10% FBS to a final concentration of 0.1, 1, or 5 μM, with or without the MMP inhibitor GM6001 ([…]). Plates were placed in a 37° C. heated chamber, and images were collected using the IncuCyte® Zoom platform (Essen Bioscience; 20×, NA 0.60, air objective). Phase images were collected every one hour for a total of 12 h using the IncuCyte® acquisition software.
# MDA-MB-231 cells [3] = test: 2D single-cell random migration assay; details: all concentrations; 12 hours; compared to control peptide; data not shown
# Description: The 2D single-cell random migration assay was performed as previously described in Genna et al. Pyk2 and FAK differentially regulate invadopodia formation and function in breast cancer cells. J Cell Biol 2018; 217: 375-395. In brief, 6-well microtiter plates were coated with 10 μg/ml fibronectin and blocked with 1% denatured BSA. Peptide pre-treated cells were plated at 20,000 cells/well in DMEM/10% FBS containing peptides and allowed to adhere for 12-16 h. Plates were placed in a 37° C. heated chamber, and images were collected using the IncuCyte® Zoom platform (Essen Bioscience, Ann Arbor, MI, USA; 20×, NA 0.60, air objective). Phase images were collected every one hour for a total of 12 h using the IncuCyte® acquisition software. Trajectory plots, accumulated distance (total cell path length), Euclidean distance (the shortest distance between the starting point and endpoint of migration), and velocity were calculated using the chemotaxis and migration tool (ibidi GMBH, Grafelfing, Germany).
# MDA-MB-231 cells [4] = test: ECM degradation assay; details: 24 h on fluorescent fibronectin/gelatin matrix; compared to control peptide
# Description: The in vitro matrix degradation assay was performed as described in Genna et al., 2018 (supra). Briefly, MatTek dishes were treated with 2.5% gelatin/2.5% sucrose, cross-linked with 0.5% glutaraldehyde, treated with 10 μg/ml of fluorescently labeled fibronectin (Alexa 568; Invitrogen, Thermo Fischer Scientific), and then with 1 mg/ml NaBH4 in PBS. 125,000 cells were plated on the fibronectin/gelatin matrix in Pyk2-PRR or control peptides and allowed to degrade for 24 h. Cells were then fixed in 3.7% paraformaldehyde, and random fields were imaged using an inverted fluorescent microscope (Leica AF6000; 40×, NA 1.3, oil objective). ECM degradation was analyzed by quantifying the average degraded area in pixels per field using ImageJ.
# MDA-MB-231 cells [5] = test: Barbed end formation assay; details: EGF stimulation; all concentrations
# Description: The barbed end assay was performed using biotin-conjugated actin as described in Genna et al., 2018 (supra). In brief, 24 h before each experiment, cells were plated on fibronectin/gelatin unlabeled matrix in the presence of Pyk2-PRR or control peptides at 0.1, 1, or 5 μM concentration and allowed to attach for 8 h. Cells were starved for 16 h in the presence of the peptides and then stimulated with 2.5 nM EGF and permeabilized with a permeabilization buffer (20 mM Hepes, pH 7.5, 138 mM KCl, 4 mM MgCl2, 3 mM EGTA, 0.2 mg/ml saponin, 1 mM ATP, and 1% BSA) containing 0.4 μM biotin-conjugated muscle actin (AB07) (Cytoskeleton Inc., Denver, CO, USA) for 1 min at 37° C. Cells were fixed in 3.7% paraformaldehyde for 5 min, blocked in PBS containing 1% FBS, 1% BSA, and 3 μM un-labeled phalloidin (Molecular Probes, P3457), then labeled with FITC anti-biotin (200-092-211) (Jackson ImmunoResearch Laboratories, West Grove, PA, USA) to visualize barbed ends, and with rhodamine-phalloidin (R415) (Molecular Probes, Eugene, OR, USA) and Arp2 to identify regions of cells rich in invadopodia. The barbed end intensity at invadopodia-rich regions was quantified by measuring mgv at invadopodia-rich areas minus mgv of the background. Data were normalized to the control condition for each experiment.
smiles,measurement,setting,value
"C[C@H](NC(=O)[C@@H](N)[C@@H](C)O)C(=O)N[C@@H](Cc1ccccc1)C(=O)N[C@@H](CCC(N)=O)C(=O)N[C@@H](CCC(=O)O)C(=O)N1CCC[C@H]1C(=O)N1CCC[C@H]1C(=O)N1CCC[C@H]1C(=O)N[C@@H](CCCCN)C(=O)N1CCC[C@H]1C(=O)N[C@@H](CO)C(=O)N[C@@H](CCCNC(=N)N)C(=O)N1CCC[C@H]1C(=O)N[C@@H](CCCCN)C(=O)N[C@@H](Cc1ccc(O)cc1)C(=O)N[C@@H](CCCNC(=N)N)C(=O)N1CCC[C@H]1C(=O)N1CCC[C@H]1C(=O)N1CCC[C@H]1C(=O)O [Pyk2-PRR2, TAFQEPPPKPSRPKYRPPP]","mature, matrix-degrading invadopodia",MDA-MB-231 cells [1]; co-localization with degradation regions,significant decrease
same,immature invadopodium precursors,MDA-MB-231 cells [1]; cortactin and Tks5 co-localization,significant increase
same,invasion towards a scratch wound in 3D Matrigel,MDA-MB-231 cells [2],significantly reduced ability to close the gap
same,"2D motility (accumulated and Euclidean distances, velocity)",MDA-MB-231 cells [3],reduced 2D motility
same,matrix degradation (degradation area),MDA-MB-231 cells [4],significant decrease
same,generation of free actin barbed ends at invadopodia,MDA-MB-231 cells [5],completely disrupted
